Data taken from US7700106B2, “Therapeutic agent for ulcerative colitis” (priority 2001, dated 2010).

Assays:
Fusobacterium varium = assay: Susceptibility of Fusobacterium varium to antimicrobial agents; format: cell-based
Text: The susceptibility to Fusobacterium varium in antimicrobial agents was examined.

Molecule	colonic lesions after enema (mice; mice, twenty-four hours after enema)	lesion after injection into the rectum (mice; mouse, injected into the rectum)	resistance of Fusobacterium varium to antimicrobial agent (Fusobacterium varium)
CCCC(=O)O [butyric acid]	colonic ulcers with crypt abscesses, inflammatory cell infiltration and apoptotic changes	a lesion similar to ulcerative colitis was induced	–
CC[C@H]1OC(=O)[C@H](C)[C@@H](O[C@H]2C[C@@](C)(OC)[C@@H](O)[C@H](C)O2)[C@H](C)[C@@H](O[C@@H]2O[C@H](C)C[C@H](N(C)C)[C@H]2O)[C@](C)(OC)C[C@@H](C)C(=O)[C@H](C)[C@@H](O)[C@]1(C)O [clarithromycin]	–	–	resistant
CC[C@H]1OC(=O)[C@H](C)[C@@H](O[C@H]2C[C@@](C)(OC)[C@@H](O)[C@H](C)O2)[C@H](C)[C@@H](O[C@@H]2O[C@H](C)C[C@H](N(C)C)[C@H]2O)[C@](C)(O)C[C@@H](C)C(=O)[C@H](C)[C@@H](O)[C@]1(C)O [erythromycin]	–	–	resistant
[H]/N=C(/N)N[C@H]1[C@H](O)[C@@H](O)[C@H](O[C@@H]2O[C@@H](C)[C@](O)(C=O)[C@H]2O[C@@H]2O[C@@H](CO)[C@H](O)[C@@H](O)[C@@H]2NC)[C@@H](N/C(N)=N\[H])[C@@H]1O [streptomycin]	–	–	resistant
gentamycin	–	–	resistant
